These results are taken from US5073572A, “Bioactive metabolites from cribrochalina vasculum” (Harbor Branch Oceanographic Institution, Inc., priority 1990, dated 1991).

Data set [1] is described as follows: lymphocyte viability (LCV) assay. It is filed as cell-based, murine. The settings on record: mouse, splenocytes, percentage of positive LCV control (no compound). The method, then:
The pure compounds were tested for immunosuppressive effects in the MLR assay and for specific cytotoxicity effects in the lymphocyte viability (LCV) assay both using murine splenocytes. Cellular proliferation was determined using incorporation of ^3 H-thymidine and a modified form of the M. T. T. assay (Mosmann, T. [1983] "Rapid colorimetric assay for cellular growth and survival: Application to proliferation and cytotoxicity assays," J. Immunol. Methods, 65:55-63). Responses were reported as a percent of the positive MLR or LCV control. As a general rule, a low MLR value combined with a high LCV value indicates immunosuppressive activity.
^b Viability (LCV) of lymphocytes as measured by metabolism of M.T.T.
Results are expressed as a percentage of the positive LCV control respons

Data set [2] has as its system murine splenocytes. The data set is described as follows: two-way mixed lymphocyte reaction (MLR). In kind it is cell-based. The settings on record: Mus musculus, Splenocyte, percentage of positive MLR control (no compound); for activity at 0.01 µg/well: 0.01 ug/well; for activity at 0.1 µg/well: 0.1 ug/well; for activity at 1 µg/well: 1 ug/well; for activity at 10 µg/well: 10 ug/well. The method, then: The crude ethanolic extract was tested in the two-way mixed lymphocyte reaction (MLR) and a CV-1 cytotoxicity assay at a 1X concentration of the crude extract, using murine splenocytes. Cellular proliferation was measured using incorporation of ^3 H-thymidine.
The pure compounds were tested for immunosuppressive effects in the MLR assay and for specific cytotoxicity effects in the lymphocyte viability (LCV) assay both using murine splenocytes. […] Responses were reported as a percent of the positive MLR or LCV control. As a general rule, a low MLR value combined with a high LCV value indicates immunosuppressive activity.
^a Twoway murine mixed lymphocyte response. Results are expressed as
percentage of the positive MLR control response (no compound).

Data set [3] deals with A549 lung tumor cells. The data set is described as follows: antiproliferative effect against A549 lung tumor cells (MTT). In kind it is cell-based. As to conditions: human lung tumor cells, mean ± S.D., n in parentheses. The method, then:
(§1) The crude ethanolic extract and essentially pure compound were tested for toxicity against murine P388 leukemia cells and cells derived from human colon (HT-29) and lung (A549) tumors. P388 cells obtained from Dr. J. Mayo, National Cancer Institute, Bethesda Md., were maintained in Roswell Park Memorial Institute (RPMI) medium 1640 supplemented with 10% horse serum. HT-29 and A-459 human tumor cells were obtained from the American Type Culture Collection (Rockville, Md.) and maintained in RPMI medium 1640 supplemented with 10% fetal bovine serum. All cell lines were cultured in plastic tissue culture flasks and kept in an incubator at 37° C. in humidified air containing 5% CO2. Antibiotic-free stock cultures of P388 cells were subcultured to 10^5 cells/ml by dilution in fresh growth medium at 2 to 3 day intervals. The mean generation time of primary P388 cultures was 14 to 17 hr. HT-29 and A549 cells were subcultured after dissociation with trypsin-EDTA at weekly intervals.
(§2) To assess the antiproliferative effects of agents against P388, HT-29, and A549 cells, 200 μl cultures (96-well tissue culture plates, Nunc, Denmark) were established at 1×10^5 cells/ml (4000 cells/cm^2 for HT-29 and A549) in drug-free medium or medium containing the crude extract at a final dilution of 1:500 of test compound at various concentrations. Solvent for all dilutions was methanol, which was removed from plates under vacuum. All experimental cultures were initiated in medium containing Gentamicin sulfate ([…]; Schering Corporation, Kenilworth, N.J.). After 48-h exposures, P388 cells were enumerated using 3-[4,5-Dimethylthiazol-2-yl]-2,5-diphenyltetrazolium bromide (MTT) as described below (Alley, M. C., et al.[1988] Cancer Res. 48:589).
(§3) To quantitate the effects on cell proliferation, 75 μl of warm growth medium containing 5 mg/ml MTT was added to each well and cultures were returned to the incubator for 90 minutes. To spectrophotometrically quantitate MTT, plates were centrifuged (900×g, 5 minutes), culture fluids removed by aspiration, and 200 μl of acidified isopropanol (2 ml concentrated HCl/liter isopropanol) added per well. The absorbance of the resulting solutions were measured at 570 nm with a plate reader (MR700 Microplate Reader, Dynatech, Laboratories, Chantilly, Va.). […] A linear relationship between tumor cell number and formazan produced was found over the range of cell densities observed in these experiments.

Data set [4] has as its system P388 leukemia cells. Kind of data set: antiproliferative effect against P388 leukemia cells (MTT). In kind it is cell-based. As to conditions: Mus musculus; murine P388 leukemia cells, 48-h exposure; mean ± S.D., n in parentheses. The method, then:
as §1, §2, §3

Data set [5] deals with HT-29 colon tumor cells. Kind of data set: antiproliferative effect against HT-29 colon tumor cells (MTT). It is filed as cell-based. As to conditions: human colon tumor cells, mean ± S.D., n in parentheses. The method, then: as §1, §2, §3

The structures appear in SMILES notation. ≈ marks a conversion by molar mass, not a printed value.

Consider `C#CC(O)C=CCCCCCCCCCCC(C)CCCC` (stereo not drawn) [SP10100], for which the viability (as a rule, a read-out of living cells in per cent, often relative to untreated cells) is 78% in data set [1] (0.01 ug/well), 42% in data set [1] (0.1 ug/well), 12% in data set [1] (1 ug/well) and 8% in data set [1] (10 ug/well). The same compound gave an activity at 0.01 µg/well in data set [2] of 21%. In data set [2], this compound showed an activity at 0.1 µg/well of 0%. The same compound returned an activity at 1 µg/well in data set [2] of 0%. For the same compound, the activity at 10 µg/well in data set [2] was 0%. Also, the 50% inhibitory concentration (IC50) (commonly the concentration that inhibits the measured activity by half) stood at 1.56 ± 0.06 µg/mL (≈ 5.09 µM) in data set [3], 1.58 ± 0.51 µg/mL (≈ 5.15 µM) in data set [4] and 0.86 ± 0.06 µg/mL (≈ 2.81 µM) in data set [5].

Regarding `C#CC(O)C=CCCCCCCCCCCCCCCC` (stereo not drawn) [SP10098], the viability was determined as 80% in data set [1] (0.01 ug/well), 61% in data set [1] (0.1 ug/well), 21% in data set [1] (1 ug/well) and 2% in data set [1] (10 ug/well). The compound further showed an activity at 0.01 µg/well in data set [2] of 24%. The compound also registered an activity at 0.1 µg/well in data set [2] of 0%. In data set [2], this compound registered an activity at 1 µg/well of 0%. In addition, the activity at 10 µg/well in data set [2] turned out to be 0%. Moreover, the half-maximal inhibitory concentration (IC50) in data set [3] was 1.6 ± 0.1 µg/mL (≈ 5.47 µM); in data set [4] it was 1.21 ± 0.73 µg/mL (≈ 4.14 µM); in data set [5], 1.66 ± 0.47 µg/mL (≈ 5.68 µM).

`C#CC(O)C=CCCCCCCCCCC=CCCCCCC` (stereo not drawn) [SP10099]: the viability in data set [1] (0.01 ug/well) was 67%; in data set [1] (0.1 ug/well), 34%; in data set [1] (1 ug/well), 13%; in data set [1] (10 ug/well), 22%. The activity at 0.01 µg/well in data set [2] is 33%. This compound also came in with an activity at 0.1 µg/well in data set [2] of 0%. The compound further came in with an activity at 1 µg/well in data set [2] of 0%. Also, in data set [2], the activity at 10 µg/well was found to be 0%. In addition, the IC50 in data set [3] is 1.75 ± 0.06 µg/mL (≈ 5.49 µM); in data set [4] it was 1.23 ± 0.53 µg/mL (≈ 3.86 µM); in data set [5], 1.66 ± 0.15 µg/mL (≈ 5.21 µM).

Take `C#CC(O)C=CCCCCCCCCCC=CCCCCC(C)C` (stereo not drawn) [SP10102]: the viability came out at 67% in data set [1] (0.01 ug/well), 45% in data set [1] (0.1 ug/well), 15% in data set [1] (1 ug/well) and 0% in data set [1] (10 ug/well). Also, the activity at 0.01 µg/well in data set [2] was 20%. In data set [2], this compound had an activity at 0.1 µg/well of 0%. For the same compound, the activity at 1 µg/well in data set [2] came out at 0%. Also, the activity at 10 µg/well in data set [2] amounted to 0%. Further, the IC50 in data set [3] turned out to be 2.9 ± 0.34 µg/mL (≈ 8.72 µM); in data set [4] it was 1.63 ± 0.29 µg/mL (≈ 4.9 µM); in data set [5] it was 1.46 ± 0.06 µg/mL (≈ 4.39 µM).

Regarding `C#CC(O)C=CCCCCCCCCCCCCCC(C)C` (stereo not drawn) [SP10101], the viability in data set [1] (0.01 ug/well) came out at 82%; in data set [1] (0.1 ug/well), 49%; in data set [1] (1 ug/well) it was 7%; in data set [1] (10 ug/well), 10%. In data set [2], this compound gave an activity at 0.01 µg/well of 21%. The activity at 0.1 µg/well in data set [2] is 0%. In data set [2], this compound yielded an activity at 1 µg/well of 0%. For the same compound, the IC50 was found to be 2.3 ± 0.7 µg/mL (≈ 7.5 µM) in data set [3], 1.44 ± 0.28 µg/mL (≈ 4.7 µM) in data set [4] and 1.06 ± 0.11 µg/mL (≈ 3.46 µM) in data set [5].
